Results taken from article PMC10288505, “Photoswitchable Calixarene Activators for Controlled Peptide Transport across Lipid Membranes” (Journal of the American Chemical Society, 2023).

Key:
[1] = Fluorescence titration of lucigenin dye with calixarene host (1:1 binding model); details: association constant, 1:1 host:guest model, 5 mM phosphate buffer pH 7.3, mean ± SD of triplicate
Excerpt: (§1) The binding affinity of the anionic calixarene activators toward cationic peptides was investigated using a small library of highly hydrophilic oligoarginines, from 3 to 8 residues. These peptides are not able to spontaneously transverse zwitterionic artificial membranes in vesicle assays, which allows the accurate evaluation of the calixarenes 1 and 2 as counterion activators without interferences from the transport of the peptide alone.[43]−[45] First, the formation of host–guest complexes between 1/2 and the selected peptides was verified by indicator displacement assays using lucigenin (LCG) as the fluorescent indicator.[46] As previously reported for other sulfonatocalixarene derivatives,[46] the formation of host–guest binding pairs between calixarenes 1/2 in the E- and Z-forms and LCG results in significant static fluorescence quenching (see Figure 2A and Figures S26 and S27). Quantitative analysis of the fluorescence titration data using a 1:1 host:guest binding model allows the determination of the respective binding constants (K) reported in Table 1. As can be observed, both 1/2 display high affinity for the LCG dye, on the 10^7 M^–1 range, which seems to be independent of the nature and conformation of the azobenzene arm. […] The host:LCG binding pairs were then employed in the above-mentioned indicator displacement assays to investigate the binding affinity of oligoarginines toward 1 and 2 (see Figure 2B and Figures S29–S33).
Figure 2 (A) Fluorescence titration of the lucigenin dye (LCG, 1.5 μM) with increasing concentrations of E-2 in water (5 mM phosphate buffer, pH 7.3). (B) Indicator displacement titration of hexaarginine (R6) using E-2:LCG as the reporter pair (5 mM phosphate buffer, pH 7.3). LCG and E-2 concentrations were fixed at 4 and 4.3 μM, respectively. […]
The binding affinities of the counterion activators and peptide complexes were analyzed by indicator displacement assays. […] Firstly, the affinity for LCG was calculated for each of the activators, by titrations followed by fluorescence spectroscopy leading to almost full quenching of the emission. […]
Figure S26 - Fluorescence titration of the lucigenin dye with increasing concentrations of A) E-1 and B) Z–1 in water (5 mM phosphate buffer pH 7.3). […]
Figure S27 - Fluorescence titrations of the lucigenin dye (LCG, 0.2 µM, except for the first E-2 titration were [LCG] = 1.5 µM ) with increasing concentrations of (A) E-2 and (B) Z-2 in water (5 mM phosphate buffer pH 7.3). […]
Figure S28 - Fluorescence titrations of the lucigenin dye (LCG, 0.2 µM) with increasing concentrations of SC4 in water (5 mM phosphate buffer pH 7.3). […]

[2] = Photochemical characterisation (UV–vis absorption, 1H NMR) and thermal Z→E isomerization; assay type: physicochemical; details: for Fraction of E isomer in the photostationary state (PSS): irradiation of the Z-forms at 500 nm; for Thermal stability of the Z isomer: room temperature, time frame of the experiments
Excerpt: The photochromic properties of 1 and 2 were investigated in diluted aqueous solution by UV–vis absorption spectroscopy and in CD3OD by ^1H NMR.
On the other hand, irradiation of the Z-forms at λirr = 500 nm originates a photostationary state (PSS) composed of 70 and 80% of E-1 (Φ1Z → E = 0.6) and E-2 (Φ2Z → E = 0.5), respectively (Figure 1 and Figure S23). As generally observed for other azobenzene photoswitches,[42] the E isomers can be quantitatively recovered in the dark through the thermal Z → E isomerization, with 1 and 2 presenting activation energies of 215 and 93 kJ/mol, respectively (Figures S24 and S25).

R3 = experiment: Indicator displacement assay with host:LCG reporter pair, guest R3; assay type: binding; details: association constant, competitive dye displacement with LCG, 5 mM phosphate buffer pH 7.3, mean ± SD of triplicate
Excerpt: as §1
(§2) The binding affinities of the counterion activators and peptide complexes were analyzed by indicator displacement assays. The fluorescent dye chosen for these experiments was lucigenin (LCG) due to its complex with the receptor SC4 being well characterized and due to the high variation of emission between its bound and free form. Firstly, the affinity for LCG was calculated for each of the activators, by titrations followed by fluorescence spectroscopy leading to almost full quenching of the emission. For the competitive assays, a concentration of LCG and activator was chosen in order to have approximately 90% of complexed dye and that mixture was then titrated with each of the peptides, leading to the regaining of emission when LCG was release from the complex.
(§3) Figure S26 - Fluorescence titration of the lucigenin dye with increasing concentrations of A) E-1 and B) Z–1 in water (5 mM phosphate buffer pH 7.3). LCG concentration was fixed 0.2 µM in all experiments, except for the first E-1 titrations were [LCG]
(§4) (1 picture or pasted object on this page, not shown here)
(§5) Figure S29 - Indicator displacement titration of the several oligoarginines A) R3 B) R4 C) R6 and D) R8, using SC4:LCG as the reporter pair (5 mM phosphate buffer pH 7.3). LCG and SC4 concentrations were fixed at A) 0.22 and 0.50 µM, for all three replicates, B) 0.22 and 4.7 µM for the first titration and 0.22 and 4.3 µM for the remaining two replicates, C) 0.22 and 0.45 µM and 1.1 and 0.85 µM and D) 0.28 and 0.43 µM and 1.1 and 0.85 µM, respectively, from left to right.
(§6) Figure S30 - Indicator displacement titration of the several oligoarginines A) R3 B) R4 C) R6 and D) R8, using E-1:LCG as the reporter pair (5 mM phosphate buffer pH 7.3) LCG and E-1 concentrations were fixed at A) 0.11 and 0.25 µM, for all three replicates, B) 0.22 and 0.5 µM, for the first two titrations and 0.22 and 0.23 µM for the remaining replicate, C) 4.0 and 3.8 µM and 0.22 and 0.5 µM, D) 4 and 3 µM and 0.22 and 0.5 µM, respectively, from left to right. […]

R4 = experiment: Indicator displacement assay with host:LCG reporter pair, guest R4; assay type: binding; details: association constant, competitive dye displacement with LCG, 5 mM phosphate buffer pH 7.3, mean ± SD of triplicate
Excerpt: as §1, §2, §3, §4, §5, §6

Compound | Apparent affinity constant K for LCG [1] | Fraction of E isomer in the photostationary state (PSS) [2] | Apparent affinity constant K for R3 (R3) | Apparent affinity constant K for R4 (R4) | Thermal stability of the Z isomer [2]
O=S(=O)([O-])c1cc2c(O)c(c1)Cc1cc(S(=O)(=O)[O-])cc(c1O)Cc1cc(S(=O)(=O)[O-])cc(c1OCCCCCCOc1ccc(/N=N/c3ccccc3)cc1)Cc1cc(S(=O)(=O)[O-])cc(c1O)C2.[Li+].[Li+].[Li+].[Li+] [E-1] | (2.5 ± 0.7) × 10^7 M^–1 | 70% | (2.6 ± 0.8) × 10^6 M^–1 | (3.9 ± 0.3) × 10^7 M^–1 | –
CCCCc1ccc(/N=N/c2ccc(OCCCOc3c4cc(S(=O)(=O)[O-])cc3Cc3cc(S(=O)(=O)[O-])cc(c3O)Cc3cc(S(=O)(=O)[O-])cc(c3O)Cc3cc(S(=O)(=O)[O-])cc(c3O)C4)cc2)cc1.[Li+].[Li+].[Li+].[Li+] [E-2] | (2.6 ± 0.7) × 10^7 M^–1 | 80% | (4.1 ± 0.2) × 10^6 M^–1 | (1.2 ± 0.6) × 10^8 M^–1 | –
CCCCc1ccc(/N=N\c2ccc(OCCCOc3c4cc(S(=O)(=O)[O-])cc3Cc3cc(S(=O)(=O)[O-])cc(c3O)Cc3cc(S(=O)(=O)[O-])cc(c3O)Cc3cc(S(=O)(=O)[O-])cc(c3O)C4)cc2)cc1.[Li+].[Li+].[Li+].[Li+] [Z-2] | (3.4 ± 0.8) × 10^7 M^–1 | – | (3.6 ± 0.3) × 10^6 M^–1 | (7.8 ± 1.3) × 10^7 M^–1 | minimal thermal interconversion at room temperature
O=S(=O)([O-])c1cc2c(O)c(c1)Cc1cc(S(=O)(=O)[O-])cc(c1O)Cc1cc(S(=O)(=O)[O-])cc(c1OCCCCCCOc1ccc(/N=N\c3ccccc3)cc1)Cc1cc(S(=O)(=O)[O-])cc(c1O)C2.[Li+].[Li+].[Li+].[Li+] [Z-1] | (2.3 ± 0.4) × 10^7 M^–1 | – | (2.4 ± 0.6) × 10^6 M^–1 | (3.2 ± 0.7) × 10^7 M^–1 | minimal thermal interconversion at room temperature
